Positions of bridges follow the written chain, without caps; N, C: chain ends. Non-standard residues stand in square brackets, D forms with d. Residues, ends and D or L forms follow the SMILES beside them. ξ: configuration not given here. ξK = NCCCCC(N)C(=O)O; ξA = CC(N)C(=O)O
Target: T1, mt G12D KRas binding to GST-RBD (Raf Ras binding domain) (Homo sapiens, UniProt P01116, G12D)
T1 construct: expressed in transfected cells; host or cells: NIH-3T3 cells (lysate)
Assay: GST-RBD pulldown assay
Details: lysates of NIH-3T3 cells that ectopically express G12D KRas; compared to DMSO control; FIG. 1B
Procedure: Several stapled peptides such as FY-A-100-1 and 2 have been made (see FIG. 1A) that were designed based on the helical domain (78-92, LHDCLMKALKVRGLQ) (SEQ ID NO. 1) of Raf RBD (Ras binding domain). The synthesis was conducted on solid phase. In GST-RBD pulldown assays, FY-A-100-1 was potent at inhibiting the ability of GST-RBD to bind mt G12D KRas from lysates of NIH-3T3 cells that ectopically express G12D KRas (FIG. 1B). […] Furthermore, FY-A-90-1A, which is identical to FY-A-100-1 except for having a “CH2” shorter side chain of residue 82 that forms the staple, was not active.

Row | SMILES | inhibiting the ability of GST-RBD to bind mt G12D KRas
1 | CSCC[C@@H]1NC(=O)[C@@H](NC(=O)[C@H](CS)NC(=O)[C@H](CC(=O)O)NC(=O)[C@H](Cc2cnc[nH]2)NC(=O)[C@@H](N)CC(C)C)CCC(=O)NCCCC[C@@H](C(=O)N[C@@H](CCCCN)C(=O)N[C@H](C(=O)N[C@@H](CCCNC(=N)N)C(=O)NCC(=O)N[C@@H](CC(C)C)C(=O)N[C@@H](CCC(N)=O)C(N)=O)C(C)C)NC(=O)[C@H](CCCCN)NC(=O)[C@H](CCCCN)NC1=O [FY-A-100-1] (H-LHDCEMKKKKVRGLQ-NH2; lactam 5-9) | potent
2 | CSCC[C@@H]1NC(=O)[C@@H](NC(=O)[C@H](CS)NC(=O)[C@H](CC(=O)O)NC(=O)[C@H](Cc2cnc[nH]2)NC(=O)[C@@H](N)CC(C)C)CC(=O)NCCCC[C@@H](C(=O)NC(CCCCN)C(=O)N[C@H](C(=O)N[C@@H](CCCNC(=N)N)C(=O)NCC(=O)N[C@@H](CC(C)C)C(=O)N[C@@H](CCC(N)=O)C(N)=O)C(C)C)NC(=O)C(C)NC(=O)[C@H](CCCCN)NC1=O (stereo partly drawn) [FY-A-90-2A] (H-LHDCDMK[ξA]K[ξK]VRGLQ-NH2; lactam 5-9) | little activity
3 | CSCC[C@H](NC(=O)[C@H](CC(=O)O)NC(=O)[C@H](CS)NC(=O)[C@H](CC(=O)O)NC(=O)[C@H](Cc1cnc[nH]1)NC(=O)[C@@H](N)CC(C)C)C(=O)N[C@@H](CCCCN)C(=O)NC(CCCCN)C(=O)N[C@@H](CCCCN)C(=O)NC(CCCCN)C(=O)N[C@H](C(=O)N[C@@H](CCCNC(=N)N)C(=O)NCC(=O)N[C@@H](CC(C)C)C(=O)N[C@@H](CCC(N)=O)C(N)=O)C(C)C (stereo partly drawn) [FY-A-90-1B] (H-LHDCDMK[ξK]K[ξK]VRGLQ-NH2) | little activity
4 | CSCC[C@@H]1NC(=O)[C@@H](NC(=O)[C@H](CS)NC(=O)[C@H](CC(=O)O)NC(=O)[C@H](Cc2cnc[nH]2)NC(=O)[C@@H](N)CC(C)C)CCC(=O)NCCCC[C@@H](C(=O)N[C@@H](CCCCN)C(=O)N[C@H](C(=O)N[C@@H](CCCNC(=N)N)C(=O)NCC(=O)N[C@@H](CC(C)C)C(=O)N[C@@H](CCC(N)=O)C(N)=O)C(C)C)NC(=O)C(C)NC(=O)[C@H](CCCCN)NC1=O (stereo partly drawn) [FY-A-100-2] (H-LHDCEMK[ξA]KKVRGLQ-NH2; lactam 5-9) | less potent
5 | CSCC[C@@H]1NC(=O)[C@@H](NC(=O)[C@H](CS)NC(=O)[C@H](CC(=O)O)NC(=O)[C@H](Cc2cnc[nH]2)NC(=O)[C@@H](N)CC(C)C)CC(=O)NCCCC[C@@H](C(=O)NC(CCCCN)C(=O)N[C@H](C(=O)N[C@@H](CCCNC(=N)N)C(=O)NCC(=O)N[C@@H](CC(C)C)C(=O)N[C@@H](CCC(N)=O)C(N)=O)C(C)C)NC(=O)C(CCCCN)NC(=O)[C@H](CCCCN)NC1=O (stereo partly drawn) [FY-A-90-1A] (H-LHDCDMK[ξK]K[ξK]VRGLQ-NH2; lactam 5-9) | not active
6 | CSCC[C@H](NC(=O)[C@H](CC(=O)O)NC(=O)[C@H](CS)NC(=O)[C@H](CC(=O)O)NC(=O)[C@H](Cc1cnc[nH]1)NC(=O)[C@@H](N)CC(C)C)C(=O)N[C@@H](CCCCN)C(=O)NC(C)C(=O)N[C@@H](CCCCN)C(=O)NC(CCCCN)C(=O)N[C@H](C(=O)N[C@@H](CCCNC(=N)N)C(=O)NCC(=O)N[C@@H](CC(C)C)C(=O)N[C@@H](CCC(N)=O)C(N)=O)C(C)C (stereo partly drawn) [FY-A-90-2B] (H-LHDCDMK[ξA]K[ξK]VRGLQ-NH2) | little activity

Source: patent publication US10507228B2, “Methods and compositions related to KRAS inhibitors” (priority 2015, dated 2019)
